Patent US9695155B2, “Herbicidal substituted pyrimidinyloxy benzene compounds” (E. I. DU PONT DE NEMOURS AND COMPANY, priority 2013, dated 2017)

Legend:
soybean = assay: Test C preemergence; type: in vivo, Glycine max; conditions: for Soybean plant response rating: preemergence
How it was run: (§1)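 Whole-plant greenhouse test with surfactant-containing solvent formulation, applied preemergence to sown loam–sand pots or postemergence to 2–18 cm plants. Scored by eye 13 to 15 days on, 0–100 scale.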

oilseed rape = assay: Test C preemergence; type: in vivo, Brassica napus; conditions: for Oilseed Rape plant response rating: preemergence
How it was run: as §1

Italian ryegrass = assay: Test A postemergence; type: in vivo, Lolium multiflorum
How it was run: (§2)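 Visual 0–100 rating (100 = complete control) taken about 10 d post-treatment relative to untreated checks. Preemergence: directed soil spray on sown loam/sand pots. Postemergence: seedlings 2–10 cm, 1–2 leaf. Non-phytotoxic solvent formulation with surfactant.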

blackgrass [1] = assay: Test C preemergence; type: in vivo, Alopecurus myosuroides; conditions: for Blackgrass plant response rating: preemergence
How it was run: as §1

kochia [2] = assay: Test A preemergence; type: in vivo, Kochia scoparia
How it was run: as §2

velvetleaf = assay: Test C preemergence; type: in vivo, Abutilon theophrasti; conditions: for Velvetleaf plant response rating: preemergence
How it was run: as §1

morningglory = assay: Test C preemergence; type: in vivo, Ipomoea coccinea; conditions: for Morningglory plant response rating: preemergence
How it was run: as §1

kochia [3] = assay: Test A postemergence; type: in vivo, Kochia scoparia
How it was run: as §2

lambsquarters = assay: Test C preemergence; type: in vivo, Chenopodium album; conditions: for Lambsquarters plant response rating: preemergence
How it was run: as §1

pigweed = assay: Test C preemergence; type: in vivo, Amaranthus retroflexus; conditions: for Pigweed plant response rating: preemergence
How it was run: as §1

waterhemp = assay: Test C preemergence; type: in vivo, Amaranthus rudis; conditions: for Waterhemp plant response rating: preemergence
How it was run: as §1

large (Lg) crabgrass = assay: Test C preemergence; type: in vivo, Digitaria sanguinalis; conditions: for Crabgrass, Large plant response rating: preemergence
How it was run: as §1

galium [4] = assay: Test C preemergence; type: in vivo, Galium aparine; conditions: for Galium plant response rating: preemergence
How it was run: as §1

giant foxtail = assay: Test C preemergence; type: in vivo, Setaria faberii; conditions: for Foxtail, Giant plant response rating: preemergence
How it was run: as §1

blackgrass [5] = assay: Test A postemergence; type: in vivo, Alopecurus myosuroides
How it was run: as §2

galium [6] = assay: Test A postemergence; type: in vivo, Galium aparine
How it was run: as §2

ragweed = assay: Test C preemergence; type: in vivo, Ambrosia elatior; conditions: for Ragweed plant response rating: preemergence
How it was run: as §1

barnyardgrass = assay: Test C preemergence; type: in vivo, Echinochloa crus-galli; conditions: for Barnyardgrass plant response rating: preemergence
How it was run: as §1

[7] = 16 g ai/ha, scale 0 to 100 (0 no effect, 100 complete control)
[8] = 125 g ai/ha, scale 0 (no effect) to 100 (complete control)
[9] = Preemergence, 62 g ai/ha, scale 0 to 100, 0 no effect, 100 complete control
[10] = 125 g ai/ha, 0 to 100 scale, 0 no effect, 100 complete control
[11] = 500 g ai/ha, 0 to 100 scale where 0 is no effect and 100 is complete control

With `N#Cc1cnn(-c2c(Oc3ncc(F)cn3)cccc2C(F)F)c1` [Compound 240] the “Soybean plant response rating” value (soybean; [7]) was 40, the “Soybean plant response rating” value (soybean; [8]) was 98 and the “Plant response rating, Soybean” value (soybean; [9]) was 85. For the same compound, the “Oilseed Rape plant response rating” value (oilseed rape; [7]) was 70, the “Oilseed Rape plant response rating” value (oilseed rape; [8]) was 100 and the “Plant response rating, Oilseed Rape” value (oilseed rape; [9]) was 100. For the same compound, the “Plant response rating, Ryegrass, Italian” value (Italian ryegrass; [10]) was 40, the “Plant response rating, Ryegrass, Italian” value (Italian ryegrass; [11]) was 100 and the “Blackgrass plant response rating” value (blackgrass [1]; [7]) was 0. For the same compound, the “Blackgrass plant response rating” value (blackgrass [1]; [8]) was 95, the “Plant response rating, Blackgrass” value (blackgrass [1]; [9]) was 95 and the “Kochia plant response rating (0 to 100 scale)” value (kochia [2]; 125 g ai/ha) was 100. For the same compound, the “Kochia plant response rating” value (kochia [2]; [11]) was 100, the “Velvetleaf plant response rating” value (velvetleaf; [7]) was 25 and the “Velvetleaf plant response rating” value (velvetleaf; [8]) was 85. For the same compound, the “Plant response rating, Velvetleaf” value (velvetleaf; [9]) was 80, the “Morningglory plant response rating” value (morningglory; [7]) was 15 and the “Morningglory plant response rating” value (morningglory; [8]) was 75. For the same compound, the “Plant response rating, Morningglory” value (morningglory; [9]) was 75, the “Plant response rating, Kochia” value (kochia [3]; [10]) was 100 and the “Plant response rating, Kochia” value (kochia [3]; [11]) was 60. The “Lambsquarters plant response rating” value (lambsquarters; [7]) was 70, the “Lambsquarters plant response rating” value (lambsquarters; [8]) was 100 and the “Plant response rating, Lambsquarters” value (lambsquarters; [9]) was 100. The “Pigweed plant response rating” value (pigweed; [7]) was 5, the “Pigweed plant response rating” value (pigweed; [8]) was 65 and the “Plant response rating, Pigweed” value (pigweed; [9]) was 55. For the same compound, the “Waterhemp plant response rating” value (waterhemp; [7]) was 50, the “Waterhemp plant response rating” value (waterhemp; [8]) was 100 and the “Plant response rating, Waterhemp” value (waterhemp; [9]) was 100. For the same compound, the “Crabgrass, Large plant response rating” value (large (Lg) crabgrass; [7]) was 75, the “Crabgrass, Large plant response rating” value (large (Lg) crabgrass; [8]) was 100 and the “Plant response rating, Crabgrass, Large” value (large (Lg) crabgrass; [9]) was 100. The “Galium plant response rating” value (galium [4]; [7]) was 5, the “Galium plant response rating” value (galium [4]; [8]) was 100 and the “Plant response rating, Galium” value (galium [4]; [9]) was 100. For the same compound, the “Foxtail, Giant plant response rating” value (giant foxtail; [7]) was 10, the “Foxtail, Giant plant response rating” value (giant foxtail; [8]) was 100 and the “Plant response rating, Foxtail, Giant” value (giant foxtail; [9]) was 100. The “Plant response rating, Blackgrass” value (blackgrass [5]; [10]) was 90, the “Plant response rating, Blackgrass” value (blackgrass [5]; [11]) was 100 and the “Plant response rating, Galium” value (galium [6]; [10]) was 100. The “Plant response rating, Galium” value (galium [6]; [11]) was 100, the “Ragweed plant response rating” value (ragweed; [7]) was 10 and the “Ragweed plant response rating” value (ragweed; [8]) was 80. The “Plant response rating, Ragweed” value (ragweed; [9]) was 100, the “Barnyardgrass plant response rating” value (barnyardgrass; [7]) was 5 and the “Barnyardgrass plant response rating” value (barnyardgrass; [8]) was 100. For the same compound, the “Plant response rating, Barnyardgrass” value (barnyardgrass; [9]) was 60.
